Laboratory results from US11213515B1, “Compounds that interact with the Ras superfamily for the treatment of cancers, inflammatory diseases, rasopathies, and fibrotic disease” (Shy Therapeutics LLC, priority 2017, dated 2022).

Biological target: KRas G12D/Q61H double mutant (Homo sapiens (Human), UniProt P01116, G12D/Q61H)
Experiment: Ras GTP binding domain inhibition assay (labeled GTP)
Conditions: 20 μM compound
Experimental: Buffer-I: • 50 mM Tris, pH 7.5 • 150 mM NaCl (optional) • 1 mM MgCl2 • 1 mM DTT. • KRas G12D mutant protein was expressed as a His-tagged protein. Purified His-KRas G12D protein was diluted in buffer-I to a final concentration of 3-10 μg/ml. • 200 μl of the diluted His-KRas G12D protein was added to a nickel coated 96 well plate and incubated overnight at 4° C. • The next day, wells were washed 3× in 200 μl of Buffer-I. • Then 200 μl of Buffer-I were added to each well in the presence of 1% DMSO. • Tested compounds were added to the protein-coated wells at a concentration of 20 μM, and incubated for 3 hours at room temperature. […]
Then 22 μl of Cy3-GTP or Cy5-GTP was added to each well. The labeled GTP was incubated for 45 min. at room temperature. • Following GTP incubation, wells were washed 3× in Buffer-I, and 200 μl of Buffer-I were added to each well. • Following washes, the amount of bound labeled-GTP was measured with an Eppendorf AF2200 plate reader.
By substituting KRas G12D mutant protein with KRas G12C mutant, KRas wild type, KRas Q61H mutant, KRas G12D/Q61H double mutant or KRas G12C/Q61H double mutant under the assay conditions described above, KRas G12C mutant KRas wild type, KRas Q61H mutant, KRas G12D/Q61H double mutant and KRas G12C/Q61H double mutant inhibition, respectively, were each determined.

Chain of KRas G12D/Q61H double mutant (P01116-2 other isoform, or with tags, fused parts or gaps G12D/Q61H): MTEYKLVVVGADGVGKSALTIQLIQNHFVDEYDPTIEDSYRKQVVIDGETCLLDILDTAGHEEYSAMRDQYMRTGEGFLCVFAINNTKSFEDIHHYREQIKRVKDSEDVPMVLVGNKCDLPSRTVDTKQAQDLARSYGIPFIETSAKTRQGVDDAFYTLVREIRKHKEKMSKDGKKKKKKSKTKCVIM

inhibition at 20 µM: 1 to 25%
SMILES: COCCn1c(SC(C)c2nc(-c3cccnc3)no2)nc2cc(Cl)ccc2c1=O (stereo not shown)
